Literature values as cited in patent publication US20240342171A1, “DISCOVERY OF A F-ATP SYNTHASE INHIBITOR FOR THE TREATMENT OF MYCOBACTERIUM ABSCESSUS DISEASES” (priority 2021, published 2024).
Values after ≈ are worked out from the molar mass of the structure shown.

Columns and labels:
[1] = system: M. abscessus; settings: for mode of action against M. abscessus: background statement; for MIC of clinically used anti-M. abscessus drugs: Brown-Elliott et al. 2016
[2] = Hotra et al. 2020
[3] = mouse liver microsomes; Hotra et al. 2020

For `COc1nc2ccc(Br)cc2cc1[C@@H](c1ccccc1)[C@@](O)(CCN(C)C)c1cccc2ccccc12` [BDQ, bedaquiline], the “mode of action against M. abscessus” value [1] is listed as “mostly bacteriostatic”.

For `CC(C)/N=c1\cc2n(-c3ccc(Cl)cc3)c3ccccc3nc-2cc1Nc1ccc(Cl)cc1` [CFZ, clofazimine], the MIC50 ([1]; Ferro et al. 2016) is listed as 6.8 µM (≈ 3.22 µg/mL) and the “mode of action against M. abscessus” value [1] is listed as “mostly bacteriostatic”.

In the case of `CCNc1cc(C)nc(Nc2ccc(NC(=O)c3cccc(Br)c3)cc2)n1` [GaMF1], the “c log P” value [2] is listed as 4.37 and the metabolic stability [3] is listed as “good metabolic stability”.

For `COc1cc([C@](O)(CCN(C)C)[C@@H](c2cc3cc(Br)ccc3nc2OC)c2cc(OC)nc(OC)c2OC)cc(OC)n1` [TBAJ876], the “mode of action against M. abscessus” value [1] is given as “mostly bacteriostatic”.

For `NCC[C@H](O)C(=O)N[C@@H]1C[C@H](N)[C@@H](O[C@H]2O[C@H](CN)[C@@H](O)[C@H](O)[C@H]2O)[C@H](O)[C@H]1O[C@H]1O[C@H](CO)[C@@H](O)[C@H](N)[C@H]1O` [amikacin], the “MIC of clinically used anti-M. abscessus drugs” value ([1]; Ferro et al. 2016) is listed as 55 µM.

For `CO[C@@]1(NC(=O)Cc2cccs2)C(=O)N2C(C(=O)O)=C(COC(N)=O)CS[C@@H]21` [cefocetin], the “MIC50 of first line drugs” value ([1]; […]) is listed as 43 µM.

In the case of `CO[C@@]1(NC(=O)Cc2cccs2)C(=O)N2C(C(=O)O)=C(COC(N)=O)CS[C@@H]21` [cefoxitin], the “MIC of clinically used anti-M. abscessus drugs” value ([1]; Ferro et al. 2016) is listed as 38 µM.

For `CO[C@H]1/C=C/O[C@@]2(C)Oc3c(C)c(O)c4c(c3C2=O)C2=NC3(CCN(CC(C)C)CC3)NC2=C(NC(=O)/C(C)=C\C=C\[C@H](C)[C@H](O)[C@@H](C)[C@@H](O)[C@@H](C)[C@H](OC(C)=O)[C@@H]1C)C4=O` [rifabutin], the MIC [1] is listed as 1 to 4 µM.
